# Assay results taken from US9057727B2, “Screening methods using G-protein coupled receptors and related compositions” (The General Hospital Corporation, priority 2007, dated 2015).
# Read-outs that look alike come from different tables or passages of the source. Square brackets hold non-standard residues; d marks the D form. Ends that are not written are not given here. Peptide text beside a SMILES is read from it. hArg = N=C(N)NCCCC[C@H](N)C(=O)O; Aib = CC(C)(N)C(=O)O
# Legend:
# [1] = target: T1, human PTHR, G protein-coupled conformation (RG) (Homo sapiens, UniProt Q03431); experiment: Competition binding to RG conformation of hPTHR (COS-7 membranes, GαsND, 125I-[Aib1,3,M]PTH(1-15) tracer)
# T1 construct: expressed in transfected cells; host or cells: COS-7, transient (Fugene-6); membranes
# T1 sequence (Q03431 27-593): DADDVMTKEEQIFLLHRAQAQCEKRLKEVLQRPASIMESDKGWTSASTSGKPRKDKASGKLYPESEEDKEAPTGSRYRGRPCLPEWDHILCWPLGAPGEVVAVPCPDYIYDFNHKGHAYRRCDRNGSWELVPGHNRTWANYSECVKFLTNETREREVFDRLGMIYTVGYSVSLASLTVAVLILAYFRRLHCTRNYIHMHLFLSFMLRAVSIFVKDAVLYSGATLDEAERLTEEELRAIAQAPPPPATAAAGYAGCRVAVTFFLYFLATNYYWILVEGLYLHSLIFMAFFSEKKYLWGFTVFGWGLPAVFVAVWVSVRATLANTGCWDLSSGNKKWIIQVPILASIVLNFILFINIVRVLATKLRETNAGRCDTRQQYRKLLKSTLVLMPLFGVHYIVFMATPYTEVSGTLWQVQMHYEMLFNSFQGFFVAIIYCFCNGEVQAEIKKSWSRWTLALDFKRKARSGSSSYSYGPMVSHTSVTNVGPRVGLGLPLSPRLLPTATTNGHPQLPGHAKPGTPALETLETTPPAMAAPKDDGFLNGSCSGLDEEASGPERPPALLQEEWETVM
# [2] = target: T2, human PTHR, G protein-uncoupled conformation (R^0) (Homo sapiens, UniProt Q03431); experiment: Competition binding to R0 conformation of hPTHR (COS-7 membranes, GTPγS, 125I-PTH(1-34) tracer)
# T2 construct: expressed in transfected cells; host or cells: COS-7, transient (Fugene-6)
# T2 sequence (Q03431 27-593): T1 sequence (Q03431 27-593)
# How it was run: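 Bound versus free radioligand was separated by vacuum filtration after 90 min incubation of COS-7 hPTHR membranes (20-100 μg/mL) with tracer and competing peptides. Non-specific binding came from a saturating unlabeled analog.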
# hPTHR [3] = target: T3, hPTHR (Homo sapiens, UniProt Q03431); experiment: cAMP dose-response in HKRK-B64 cells; format: cell-based; parameters: expressed in transfected cells; details: basal 5.2 ± 0.9 pmole/well not subtracted
# T3 sequence (Q03431 27-593): T1 sequence (Q03431 27-593)
# Experimental: Cells were treated for 30 minutes at room temperature with varying concentrations of ligand in the presence of IBMX. […] Data are means (±s.e.m.) of four (FIG. 7A) or five (FIG. 7B) experiments, each performed in duplicate.
# Following treatment of cells with a ligand, the intracellular cAMP levels were measured by radioimmuno assay, as described (Shimizu et al., J. Biol. Chem. 276:49003-49012 (2001)).
# hPTHR [4] = target: T3, hPTHR; experiment: Inositol phosphate production in COS-7/hPTHR cells; format: cell-based; parameters: expressed in transfected cells; host or cells: COS-7, transient (Fugene-6); details: basal 330 ± 8 cpm/well not subtracted
# Experimental: The capacity of the ligands to stimulate the production of inositol phosphates (IPs) was assessed in COS-7 cells transiently transfected with the hPTHR (FIG. 7B). Cells were treated for 30 minutes at room temperature with varying concentrations of ligand. […] Data are means (±s.e.m.) of four (FIG. 7A) or five (FIG. 7B) experiments, each performed in duplicate.
# The stimulation of intracellular inositol phosphates (IPs) was measured in transiently transfected COS-7 cells that were pre-labeled (16 hours) with ^3H-myo-D-inositol (2 μCi/ml). Cells were treated with ligand in DMEM containing fetal bovine serum (10%) and LiCl (30 mM) for 30 minutes; cells were lysed with ice cold trichloro acetic acid (5%) and IPs were extracted from the acid-lysates by ion-exchange filtration, as described (Shimizu et al., J. Biol. Chem. 276:49003-49012 (2001)).
# [5] = Calcemic action in normal rats (blood ionized calcium); format: in vivo; details: normal and TPTX rats
# How it was run: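 Corrected (pH 7.4) blood ionized calcium tracked from tail-vein samples before and 1, 2, 4 or 6 h after dosing. Peptides diluted in phosphate-citrate/NaCl/Tween 80 buffer, pH 5.0, given i.v. at 1 ml/kg to groups of six 8-week-old female SD-IGS rats; means ± SE versus vehicle.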
# [6] = Blood ionized calcium in C57BL/6 mice after intravenous injection; format: in vivo; details: 5 nmol/kg i.v.
# Experimental: FIGS. 29A and 29B are graphs showing the effect of R^0 and RG selective PTH analogs on plasma cAMP and calcium in mice. FIGS. 29A and 29B show plasma cAMP concentrations in mice (C57BL/6, males, 3 months) that were administered either vehicle, rPTH(1-34) (SEQ ID NO:130), M-PTH(1-34) (M=A^1,Aib^3,Q^10,Har^11,A^12,W^14,R^19) (SEQ ID NO:12), or E^18,A^22,L^25,K^26-(EALK)-PTHrP(1-30) (SEQ ID NO:90) (5 nmol/kg; n=7 for cAMP, n=4 for calcium) intravenously. […] In the calcium experiment, blood was withdrawn before, and 1, 2, 4 and 6 hours after injection, and ionized calcium was measured using a Ca^++/pH analyzer.
# We also characterized the effects of the EALK-PTHrP(1-30) peptide on cAMP production. Three month old male C57BL/6 mice were intravenously injected with either vehicle, rPTH(1-34), M-PTH(1-34) (M=A^1,Aib^3,Q^10,Har^11,A^12,W^14,R^19) or E^18,A^22,L^25,K^26-(EALK)-PTHrP(1-30) (5 nmol/kg). In the cAMP experiment (FIG. 29A), blood was withdrawn 10 minutes after injection and plasma level of cAMP was measured by RIA. In the calcium experiment (FIG. 29B), blood was withdrawn prior to injection and 1, 2, 4, and 6 hours after injection. Ionized calcium was measured using a Ca^++/pH analyzer.
# [7] = Bone turnover markers (PINP, osteocalcin, CTX) in mice, daily treatment; format: in vivo; details: 5 nmol/kg i.v. daily, days 6 and 13
# Experimental: FIGS. 30A-30F are graphs showing the effects of PTH analogs on plasma bone markers in mice. Mice (C57BL/6, males, 3 months) were intravenously injected daily with either vehicle, rPTH(1-34) (SEQ ID NO:130), M-PTH(1-34) (SEQ ID NO:12), or (EALK)-PTHrP(1-30) (SEQ ID NO:90) (5 nmol/kg; n=7 group) for 14 days. Markers of bone turnover (PINP, CTX and osteocalcin) were assessed by ELISA in blood at day 6 (FIGS. 30A, 30C, and 30E, respectively) and 13 (FIGS. 30B, 30D, and 30F, respectively).
# A second set of experiments was performed in which mice received 5 nmol/kg intravenous daily treatment with rPTH(1-34), M-PTH(1-34), or EALK-PTHrP(1-30) for 14 days. Blood samples were taken at days 6 and 13, and markers of bone turnover (PINP, osteocalcin and CTX) were assessed by ELISA.
# [8] = Bone structural parameters after two-week daily treatment in mice (Piximus, microCT); format: in vivo
# Experimental: FIG. 31 is a set of images showing the effects of two-week daily treatment of R^0 and RG ligands on trabecular and cortical bone structure in mice. Mice (C57BL/6, males, 3 months) were treated (i.v.) with either vehicle, rPTH(1-34) (SEQ ID NO:130), M-PTH(1-34) (SEQ ID NO:12), or E^18,A^22,L^25,K^26 (EALK)PTHrP(1-30) (SEQ ID NO:90) (5 nmol/kg; n=7 group), daily for 14 days, and femurs were analyzed by μCT.
# As described above, mice were treated intravenously) with either vehicle, rPTH(1-34), M-PTH(1-34), or EALK-PTHrP(1-30) daily for 14 days.
# SaOS cells = experiment: cAMP production in SaOS cells, dose-response; format: cell-based; details: Table 2; read-out: SaOS camp EC50
# MC3T3-E1 cells = experiment: cAMP in MC3T3-E1 cells, dose-response; format: cell-based
# Experimental: In the 1-30 scaffold, Gly, Ser, Leu, Asn, Gln, Trp, Glu, and Lys were substituted at position 29; Gly, Ser, Leu, Asn, Asp, Trp, and Lys were substituted at position 30; and Ser, Leu, Asn, Val, Trp, Glu, and Lys were substituted at position 31. […] These peptides were tested for cAMP activity in MC3T3-E1 cells.
# [9] = Piximus, mice, 5 nmol/kg i.v. daily 14 days
# [10] = mice, 5 nmol/kg i.v. daily 14 days
Compound,"ionized calcium response, in words [6]","effect on bone turnover markers, in words [7]","Lumbar Spine BMD [8, 9] [g/cm^2]","effect on trabecular/cortical bone and BMD, in words [8, 10]",Conn-Dens. ([8]; microCT distal femur),Cort Th. ([8]; microCT distal femur) [μm],Tb · N ([8]; microCT distal femur),Tb · Th ([8]; microCT distal femur) [μm],TbSp ([8]; microCT distal femur) [μm],TrabecularBV/TV ([8]; microCT distal femur) [%],BA ([8]; microCT mid femur) [mm^2],BA/TA ([8]; microCT mid femur) [%],Cort Th. ([8]; microCT mid femur) [μm],MA ([8]; microCT mid femur) [mm^2],TA ([8]; microCT mid femur) [mm^2],also measured
"CCCC[C@H](NC(=O)[C@H](CCCNC(=N)N)NC(=O)[C@H](CCC(=O)O)NC(=O)[C@@H](NC(=O)[C@H](CO)NC(=O)[C@H](C)NC(=O)[C@H](CC(C)C)NC(=O)[C@H](Cc1c[nH]cn1)NC(=O)[C@H](CCCCN)NC(=O)CNC(=O)[C@H](CC(C)C)NC(=O)[C@H](CC(N)=O)NC(=O)[C@H](Cc1c[nH]cn1)NC(=O)[C@H](CCCC)NC(=O)[C@H](CC(C)C)NC(=O)[C@H](CCC(N)=O)NC(=O)[C@@H](NC(=O)[C@H](CCC(=O)O)NC(=O)[C@H](CO)NC(=O)[C@@H](NC(=O)[C@H](C)N)C(C)C)[C@@H](C)CC)C(C)C)C(=O)N[C@@H](CCC(N)=O)C(=O)N[C@@H](Cc1c[nH]c2ccccc12)C(=O)N[C@@H](CC(C)C)C(=O)N[C@@H](CCCNC(=N)N)C(=O)N[C@@H](CCCCN)C(=O)N[C@@H](CCCCN)C(=O)N[C@@H](CC(C)C)C(=O)N[C@@H](CCC(N)=O)C(=O)N[C@@H](CC(=O)O)C(=O)N[C@H](C(=O)N[C@@H](Cc1c[nH]cn1)C(=O)N[C@@H](CC(N)=O)C(=O)N[C@@H](Cc1ccc(O)cc1)C(N)=O)C(C)C [[Nle^8,21,Tyr^34]rPTH(1-34)NH2, [Nle^8,21,Tyr^34]rat(r)PTH(1-34)NH2, reference compound]",,,,,,,,,,,,,,,,"IC50 ([1]; Table 5, read-out: IC50 RG, ^125I-PTH(1-15) + GsND): 0.86 ± 0.24 nM; IC50 ([2]; IC50 RR^0, ^125I-PTH(1-34) + GTPγS, Table 5): 4.2 ± 0.5 nM; R0:RG ([2]; Table 5, fold weaker affinity for R0 than RG): 5; cAMP in HKRK-B64 cells Emax (hPTHR [3]): 55 ± 12 picomole/well; IP in COS-7/hPTHR cells Emax (hPTHR [4]): 2,407 ± 138 cpm/well"
"Ala^1,Aib^3-[M]PTH(1-34) (AV[Aib]EIQLMHQ[hArg]AKWLNSMRRVEWLRKKLQDVHNF) [M-PTH(1-34), M=A1,Aib3,Q10,Har11,A12,W14,R19]",markedly more robust and more sustained than that of PTH(1-34),strongly induced increases in markers of both bone formation,0.0524 ± 0.0002,"robustly increased trabecular bone, but also detectably diminished cortical bone",263 ± 25 1/mm^3,166 ± 6,5.22 ± 0.34 1/mm,71.5 ± 1.8,208 ± 17,35.0 ± 3.0,0.837 ± 0.022,40.0 ± 0.8,151 ± 3,1.26 ± 0.04,2.10 ± 0.06,"calcemic action compared with control peptides, in words [5]: higher calcemic actions than did PTH(1-34)"
"CC[C@H](C)[C@H](NC(=O)[C@H](CC(C)C)NC(=O)[C@H](CCCCN)NC(=O)[C@H](CC(C)C)NC(=O)[C@H](CC(C)C)NC(=O)[C@H](Cc1ccccc1)NC(=O)[C@H](C)NC(=O)[C@H](CCCNC(=N)N)NC(=O)[C@H](CCCNC(=N)N)NC(=O)[C@H](CCCNC(=N)N)NC(=O)[C@H](CCC(=O)O)NC(=O)[C@H](CC(=O)O)NC(=O)[C@H](CCC(N)=O)NC(=O)[C@@H](NC(=O)[C@H](CO)NC(=O)[C@H](CCCCN)NC(=O)CNC(=O)[C@H](CCCCN)NC(=O)[C@H](CC(=O)O)NC(=O)[C@H](Cc1c[nH]cn1)NC(=O)[C@H](CC(C)C)NC(=O)[C@H](CC(C)C)NC(=O)[C@H](CCC(N)=O)NC(=O)[C@H](Cc1c[nH]cn1)NC(=O)[C@H](CCC(=O)O)NC(=O)[C@H](CO)NC(=O)[C@@H](NC(=O)[C@H](C)N)C(C)C)[C@@H](C)CC)C(=O)N[C@@H](C)C(=O)N[C@@H](CCC(=O)O)C(N)=O [E18, A22, L25, K26-PTHrP(1-30)NH, E18,A22,L25,K26-PTHrP(1-30)] (H-AVSEHQLLHDKGKSIQDERRRAFLLKLIAE-NH2; N-terminus assumed)","similar, if not lower, than that of PTH(1-34)","increased bone formation markers, with relatively smaller effects on the resorption marker",0.0464 ± 0.0002,increased cortical bone thickness with significance in the distal femur,117 ± 9 1/mm^3,238 ± 9,4.13 ± 0.16 1/mm,57.8 ± 2.1,238 ± 10,16.5 ± 1.3,0.821 ± 0.027,40.3 ± 0.6,176 ± 4,1.21 ± 0.03,2.03 ± 0.06,"EC50 (SaOS cells): 0.063 nM; EC50 (MC3T3-E1 cells; Table 2, read-out: MC3T3-E1 cAMP EC50): 0.059 nM; EC50 (MC3T3-E1 cells; Table 3, read-out: dose-response cAMP in MC3T3-E1 (EC50)): 0.059 nM; IC50 ([1]; Table 2, read-out: RG binding affinity hPTHR IC50): 0.08 nM; IC50 ([1]; Table 4, human PTH1 receptor, read-out: RG binding IC50): 0.08 nM; R0/RG selectivity ([2]; Table 2, hPTHR): 11169; IC50 ([2]; Table 4, human PTH1 receptor, read-out: R0 binding IC50): 945 nM; R0/RG ratio ([2]; human PTH receptor on COS-7 cell membranes): 11813; Total Femur BMD [8, 9]: 0.620 ± 0.0003 g/cm^2"
